Where two headings read alike, the source gives them in different places.
System: recombinant Escherichia coli KO11
Assay: Batch fermentation of E. coli KO11 in 1% CSL medium and xylose with nutrient additives: ethanol production and cell growth
Type: cell-based
Conditions: for Ethanol Production Maximum / Ethanol yield / Initial Growth (OD @ 24 h) OD / Maximum Cell Density OD / Maximum Cell Density Time / Volumetric Productivity Average / Volumetric Productivity Maximum: 1% CSL+xylose; for activity at 250 µg/mL / activity at 100 µg/mL / activity at 500 µg/mL: Escherichia coli
[1] = 1% CSL and xylose, 0.25 g/L at the start and after 12 hours
[2] = 3 × 0.25 g/L (start, 12 h, 24 h)

In the case of `CC=O` [Acetaldehyde, acetaldehyde], the “ethanol production as compared to the control” value [1] is reported as “highest amount of ethanol production”, the “initial growth and maximum cell density as compared to a control” value [1] is reported as “greatest initial growth and maximum cell density” and the “Ethanol Production Maximum” value (0.1 g/L at start) is reported as 29.51 g/L. For the same compound, the Ethanol yield (0.1 g/L at start) was 0.304 grams of ethanol/grams of added sugar, the “Initial Growth (OD @ 24 h) OD” value (0.1 g/L at start) was 2.25 OD and the “Maximum Cell Density OD” value (0.1 g/L at start) was 2.56 OD. The “Maximum Cell Density Time” value (0.1 g/L at start) was 48 h, the “Volumetric Productivity Average” value (0.1 g/L at start) was 0.307 grams ethanol/(liter)(hour) and the “Volumetric Productivity Maximum” value (0.1 g/L at start) was 0.389 grams ethanol/(liter)(hour). The “Ethanol Production Maximum” value (0.25 g/L at start) was 34.45 g/L, the Ethanol yield (0.25 g/L at start) was 0.355 grams of ethanol/grams of added sugar and the “Initial Growth (OD @ 24 h) OD” value (0.25 g/L at start) was 2.48 OD. For the same compound, the “Maximum Cell Density OD” value (0.25 g/L at start) was 3.12 OD, the “Maximum Cell Density Time” value (0.25 g/L at start) was 96 h and the “Volumetric Productivity Average” value (0.25 g/L at start) was 0.359 grams ethanol/(liter)(hour). For the same compound, the “Volumetric Productivity Maximum” value (0.25 g/L at start) was 0.425 grams ethanol/(liter)(hour), the “Ethanol Production Maximum” value (0.5 g/L at start) was 42.66 g/L and the Ethanol yield (0.5 g/L at start) was 0.439 grams of ethanol/grams of added sugar. The “Initial Growth (OD @ 24 h) OD” value (0.5 g/L at start) was 2.55 OD, the “Maximum Cell Density OD” value (0.5 g/L at start) was 4.31 OD and the “Maximum Cell Density Time” value (0.5 g/L at start) was 96 h. For the same compound, the “Volumetric Productivity Average” value (0.5 g/L at start) was 0.444 grams ethanol/(liter)(hour), the “Volumetric Productivity Maximum” value (0.5 g/L at start) was 0.623 grams ethanol/(liter)(hour) and the “Ethanol Production Maximum” value (2 × 0.25 g/L (start, 12 h)) was 45.57 g/L. The Ethanol yield (2 × 0.25 g/L (start, 12 h)) was 0.469 grams of ethanol/grams of added sugar, the “Initial Growth (OD @ 24 h) OD” value (2 × 0.25 g/L (start, 12 h)) was 3.36 OD and the “Maximum Cell Density OD” value (2 × 0.25 g/L (start, 12 h)) was 4.67 OD. The “Maximum Cell Density Time” value (2 × 0.25 g/L (start, 12 h)) was 96 h, the “Volumetric Productivity Average” value (2 × 0.25 g/L (start, 12 h)) was 0.475 grams ethanol/(liter)(hour) and the “Volumetric Productivity Maximum” value (2 × 0.25 g/L (start, 12 h)) was 0.740 grams ethanol/(liter)(hour). The “Ethanol Production Maximum” value [2] was 38.21 g/L, the Ethanol yield [2] was 0.393 grams of ethanol/grams of added sugar and the “Initial Growth (OD @ 24 h) OD” value [2] was 3.04 OD. The “Maximum Cell Density OD” value [2] was 4.02 OD, the “Maximum Cell Density Time” value [2] was 48 h and the “Volumetric Productivity Average” value [2] was 0.398 grams ethanol/(liter)(hour). For the same compound, the “Volumetric Productivity Maximum” value [2] was 0.540 grams ethanol/(liter)(hour), the activity at 250 µg/mL (12 h, read-out: Ethanol Production Maximum % Control, 1% CSL+xylose, 2 × 0.25 g/L (start, 12 h)) was 152% and the activity at 250 µg/mL (12 h, read-out: Maximum Cell Density % Control, 1% CSL+xylose, 2 × 0.25 g/L (start, 12 h)) was 186%. It also gave an activity at 250 µg/mL (12 h, read-out: Volumetric Productivity Average % Control, 1% CSL+xylose, 2 × 0.25 g/L (start, 12 h)) of 152%, an activity at 250 µg/mL (12 h, read-out: Volumetric Productivity Maximum % Control, 1% CSL+xylose, 2 × 0.25 g/L (start, 12 h)) of 201% and an activity at 100 µg/mL (24 h, read-out: Initial Growth (OD @ 24 h) % Control, 1% CSL+xylose, 0.1 g/L at start) of 110%. For the same compound, the activity at 250 µg/mL (24 h, read-out: Initial Growth (OD @ 24 h) % Control, 1% CSL+xylose, 0.25 g/L at start) was 121%, the activity at 500 µg/mL (24 h, read-out: Initial Growth (OD @ 24 h) % Control, 1% CSL+xylose, 0.5 g/L at start) was 125% and the activity at 250 µg/mL (24 h, read-out: Initial Growth (OD @ 24 h) % Control, 1% CSL+xylose, 2 × 0.25 g/L (start, 12 h)) was 165%. For the same compound, the activity at 250 µg/mL (24 h, read-out: Initial Growth (OD @ 24 h) % Control, 1% CSL+xylose, 3 × 0.25 g/L (start, 12 h, 24 h)) was 149%, the activity at 100 µg/mL (read-out: Ethanol Production Maximum % Control, 1% CSL+xylose, 0.1 g/L at start) was 98.1% and the activity at 250 µg/mL (read-out: Ethanol Production Maximum % Control, 1% CSL+xylose, 0.25 g/L at start) was 115%. It also gave an activity at 500 µg/mL (read-out: Ethanol Production Maximum % Control, 1% CSL+xylose, 0.5 g/L at start) of 142%, an activity at 250 µg/mL (read-out: Ethanol Production Maximum % Control, 1% CSL+xylose, 3 × 0.25 g/L (start, 12 h, 24 h)) of 127% and an activity at 100 µg/mL (read-out: Maximum Cell Density % Control, 1% CSL+xylose, 0.1 g/L at start) of 102%. It also gave an activity at 250 µg/mL (read-out: Maximum Cell Density % Control, 1% CSL+xylose, 0.25 g/L at start) of 124%, an activity at 500 µg/mL (read-out: Maximum Cell Density % Control, 1% CSL+xylose, 0.5 g/L at start) of 171% and an activity at 250 µg/mL (read-out: Maximum Cell Density % Control, 1% CSL+xylose, 3 × 0.25 g/L (start, 12 h, 24 h)) of 160%. The activity at 100 µg/mL (read-out: Volumetric Productivity Average % Control, 1% CSL+xylose, 0.1 g/L at start) was 98.1%, the activity at 250 µg/mL (read-out: Volumetric Productivity Average % Control, 1% CSL+xylose, 0.25 g/L at start) was 115% and the activity at 500 µg/mL (read-out: Volumetric Productivity Average % Control, 1% CSL+xylose, 0.5 g/L at start) was 142%. For the same compound, the activity at 250 µg/mL (read-out: Volumetric Productivity Average % Control, 1% CSL+xylose, 3 × 0.25 g/L (start, 12 h, 24 h)) was 127%, the activity at 100 µg/mL (read-out: Volumetric Productivity Maximum % Control, 1% CSL+xylose, 0.1 g/L at start) was 106% and the activity at 250 µg/mL (read-out: Volumetric Productivity Maximum % Control, 1% CSL+xylose, 0.25 g/L at start) was 115%. For the same compound, the activity at 500 µg/mL (read-out: Volumetric Productivity Maximum % Control, 1% CSL+xylose, 0.5 g/L at start) was 169% and the activity at 250 µg/mL (read-out: Volumetric Productivity Maximum % Control, 1% CSL+xylose, 3 × 0.25 g/L (start, 12 h, 24 h)) was 147%.
